Earlier results, collected in PMC10005815 (Journal of Medicinal Chemistry, 2023).
Where two headings read alike, the source gives them in different places.

Tested on: SARS-CoV-2

## COc1ccc(C(=O)Nc2cccc(C(F)(F)F)c2)cc1Nc1nc(-c2cccnc2)c2[nH]ccc2n1 [XMU-MP-7]
read-out: EC50 against γ, δ, and o variants
  EC50: < 6.9 nM

## Cn1cnc(Cn2c(=O)[nH]/c(=N\c3cc4cn(C)nc4cc3Cl)n(Cc3cc(F)c(F)cc3F)c2=O)n1 [S-217622]
read-out: SARS-CoV-2 VOCs EC50
  EC50: 290 to 500 nM

## N#C[C@]1(c2ccc3c(N)ncnn23)O[C@@H](CO)[C@H](O)[C@@H]1O [GS-441524]
  Increase of EC50 (resistance selection): 2.7–10.4 fold
